Results reported in PubChem BioAssay AID248 (DTP/NCI, 2004).
Where “and” joins values, the source holds several entries; their conditions need not be identical. Equal entries are not always repeated. Inconclusive results and toxic doses are left out. Rule as the data show it: active = T/C of 150% or more; inactive = T/C below 125%.

Test system: L1210 leukemia ip in BDF1 mice, survival T/C
Assay: NCI In Vivo Anticancer Drug Screen. Data for tumor model L1210 Leukemia (intraperitoneal) in B6D2F1 (BDF1) mice
Conditions: endpoint: mean survival time, higher = longer survival
In short: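 Survival endpoint. Drug-treated group vs vehicle group, expressed as T divided by C. Tumor passaged by transplantation.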

[1] = dose: 100.0 mg/kg/injection, schedule: Q01DX001 (ip), vehicle: saline
[2] = dose: 200.0 mg/kg/injection, schedule: Q01DX001 (ip), vehicle: saline
[3] = dose: 400.0 mg/kg/injection, schedule: Q01DX001 (ip), vehicle: saline
[4] = dose: 100.0 mg/kg/injection, schedule: Q01DX001 (ip), vehicle: carboxymethylcellulose (CMC)
[5] = dose: 200.0 mg/kg/injection, schedule: Q01DX001 (ip), vehicle: carboxymethylcellulose (CMC)
[6] = dose: 400.0 mg/kg/injection, schedule: Q01DX001 (ip), vehicle: carboxymethylcellulose (CMC)
[7] = dose: 100.0 mg/kg/injection, schedule: Q01DX009 (ip), vehicle: saline with Tween-80
[8] = dose: 200.0 mg/kg/injection, schedule: Q01DX009 (ip), vehicle: saline with Tween-80
[9] = dose: 100.0 mg/kg/injection, schedule: Q04DX003 (ip), vehicle: saline
[10] = dose: 200.0 mg/kg/injection, schedule: Q04DX003 (ip), vehicle: saline
[11] = dose: 400.0 mg/kg/injection, schedule: Q04DX003 (ip), vehicle: saline
[12] = dose: 100.0 mg/kg/injection, schedule: Q01DX009 (ip), vehicle: Klucel (hydroxypropylcellulose) (HPC)
[13] = dose: 25.0 mg/kg/injection, schedule: Q04DX003 (ip), vehicle: saline
[14] = dose: 50.0 mg/kg/injection, schedule: Q04DX003 (ip), vehicle: saline
[15] = dose: 100.0 mg/kg/injection, schedule: Q04DX003 (ip), vehicle: saline with Tween-80
[16] = dose: 12.5 mg/kg/injection, schedule: Q04DX003 (ip), vehicle: saline
[17] = dose: 400.0 mg/kg/injection, schedule: Q01DX009 (ip), vehicle: saline with Tween-80
[18] = dose: 100.0 mg/kg/injection, schedule: Q04DX002 (ip), vehicle: saline with Tween-80
[19] = dose: 200.0 mg/kg/injection, schedule: Q04DX002 (ip), vehicle: saline with Tween-80
[20] = dose: 400.0 mg/kg/injection, schedule: Q04DX002 (ip), vehicle: saline with Tween-80
[21] = dose: 100.0 mg/kg/injection, schedule: Q04DX002 (ip), vehicle: Klucel (hydroxypropylcellulose) (HPC)
[22] = dose: 200.0 mg/kg/injection, schedule: Q04DX002 (ip), vehicle: Klucel (hydroxypropylcellulose) (HPC)
[23] = dose: 400.0 mg/kg/injection, schedule: Q04DX002 (ip), vehicle: Klucel (hydroxypropylcellulose) (HPC)
[24] = dose: 200.0 mg/kg/injection, schedule: Q04DX003 (ip), vehicle: saline with Tween-80
[25] = dose: 400.0 mg/kg/injection, schedule: Q04DX003 (ip), vehicle: saline with Tween-80

Measured: T/C

O=[N+]([O-])c1ccc(S(=O)(=O)F)c(Cl)c1
inactive: [1] 98 % of control | [2] 90 % of control | [3] 96 % of control

COc1cccc(/C=N/N2CCN(/N=C/c3cccc(OC)c3OC)CC2)c1OC
inactive: [4] 94 % of control | [5] 98 % of control | [6] 100 % of control

CN(C)c1ccc(NC(=S)Nc2ccc(N(C)C)cc2)cc1
inactive: dose: 400.0 mg/kg/injection, schedule: Q01DX001 (ip), vehicle: saline with Tween-80 88 % of control

NC(Cc1cnc(N=Nc2ccc(C(=O)O)cc2)[nH]1)C(=O)O (stereo not given)
inactive: dose: 50.0 mg/kg/injection, schedule: Q01DX009 (ip), vehicle: saline with Tween-80 100 % of control | [7] 95 % of control | [8] 103 % of control

c1ccc(N2CCN(c3ccccc3)C2C2CO2)cc1 (stereo not given)
inactive: [9] 95 % of control | [10] 97 % of control | [11] 98 % of control

O=C(O)CNC(=O)CCl
inactive: dose: 50.0 mg/kg/injection, schedule: Q01DX009 (ip), vehicle: Klucel (hydroxypropylcellulose) (HPC) 87 % of control | [12] 90 % of control | dose: 100.0 mg/kg/injection, schedule: Q04DX003 (ip), vehicle: Klucel (hydroxypropylcellulose) (HPC) 94 % of control | dose: 200.0 mg/kg/injection, schedule: Q04DX003 (ip), vehicle: Klucel (hydroxypropylcellulose) (HPC) 89 % of control

CCCC[N+](C)(CC(C)C)C1CCCCCCC1 (stereo not given)
inactive: dose: 75.0 mg/kg/injection, schedule: Q01DX001 (ip), vehicle: carboxymethylcellulose (CMC) 104 % of control | dose: 75.0 mg/kg/injection, schedule: Q01DX001 (ip), vehicle: saline 96 % of control | dose: 150.0 mg/kg/injection, schedule: Q01DX001 (ip), vehicle: saline 93 % of control

CCN(CCO)Cc1cccc2ccccc12
inactive: [13] 97 % of control | [14] 101 % of control | [15] 98 % of control | [9] 101 % of control

O=C(O)C12C3(Cl)C4(Cl)C(O)(O)C5(Cl)C3(Cl)C1(Cl)C5(Cl)C42Cl (stereo not given)
inactive: dose: 50.0 mg/kg/injection, schedule: Q01DX001 (ip), vehicle: saline 102 % of control | [1] 105 % of control | [2] 96 % of control | [3] 110 % of control

Cc1ccccc1NC(=O)Nc1ccc(Nc2ccccc2)cc1
inactive: [12] 97 % of control | dose: 200.0 mg/kg/injection, schedule: Q01DX009 (ip), vehicle: Klucel (hydroxypropylcellulose) (HPC) 91 % of control | dose: 400.0 mg/kg/injection, schedule: Q01DX009 (ip), vehicle: Klucel (hydroxypropylcellulose) (HPC) 100 % of control

[Br][Ce]([Br])[Br]
inactive: [9] 91 % of control | [10] 94 % of control | [11] 94 % of control

O=C(O)c1c(Br)c(Br)c(Br)c(Br)c1-c1c2ccc(=O)c(O)c-2oc2c(O)c(O)ccc12
inactive: [16] 108 % of control | [13] 103 % of control | [14] 105 % of control | [9] 102 % of control

CC(=O)COc1ccc(Cl)cc1Cl
inactive: [7] 98 % of control | [8] 97 % of control | [17] 92 % of control

CCCCCCC(C)(O)CCCCOC(C)OCC (stereo not given)
inactive: dose: 50.0 mg/kg/injection, schedule: Q04DX002 (ip), vehicle: saline with Tween-80 95 % of control | [18] 95 % of control | [19] 88 % of control | [20] 95 % of control

O=C(O)C1(O)c2cc(Br)ccc2-c2ccc(Br)cc21
inactive: dose: 50.0 mg/kg/injection, schedule: Q01DX001 (ip), vehicle: carboxymethylcellulose (CMC) 100 % of control | [4] 97 % of control | [5] 100 % of control | [6] 92 % of control

NC(N)=NC(N)=NC1CCCCC1
inactive: dose: 50.0 mg/kg/injection, schedule: Q01DX009 (ip), vehicle: saline 89 % of control | dose: 100.0 mg/kg/injection, schedule: Q01DX009 (ip), vehicle: saline 102 % of control | dose: 200.0 mg/kg/injection, schedule: Q01DX009 (ip), vehicle: saline 108 % of control

Cc1ccc(C(=O)/C=C\c2ccc(Cl)c(Cl)c2)cc1
inactive: [21] 92 % of control | [22] 106 % of control | [23] 95 % of control

Nc1nnc(Sc2n[nH]c(=O)[nH]c2=O)s1
inactive: [4] 98 % of control | [5] 102 % of control | [6] 105 % of control

COC(=O)c1cccc2ccc3ccccc3c12
inactive: dose: 75.0 mg/kg/injection, schedule: Q04DX003 (ip), vehicle: saline 97 % of control | dose: 150.0 mg/kg/injection, schedule: Q04DX003 (ip), vehicle: saline 103 % of control | dose: 300.0 mg/kg/injection, schedule: Q04DX003 (ip), vehicle: saline 94 % of control

COc1cccc(OC)c1CCCl
inactive: [9] 95 % of control | [10] 97 % of control | [11] 110 % of control

CC(=O)c1ccc2c3c(cccc13)CC2
inactive: [7] 102 % of control | [15] 88 % of control | [8] 98 % of control | [24] 104 % of control | [17] 101 % of control | [25] 97 % of control

COc1ccc(NC(=O)NCc2cccc(Cl)c2)cc1
inactive: dose: 50.0 mg/kg/injection, schedule: Q04DX002 (ip), vehicle: Klucel (hydroxypropylcellulose) (HPC) 100 % of control | [21] 103 % of control and 107 % of control | [22] 98 % of control | [23] 110 % of control and 92 % of control

CC(C)(C)c1cc(/C=N/NC(=S)Nc2ccccc2)cc(C(C)(C)C)c1O
inactive: [21] 96 % of control | [22] 89 % of control | [23] 92 % of control

Cc1ccc(C)c(N2C(=O)C(=O)N(c3cc(C)ccc3C)P2(=O)N(CCCl)CCCl)c1
inactive: dose: 18.0 mg/kg/injection, schedule: Q01DX Z (ip), vehicle: carboxymethylcellulose (CMC) 101 % of control | dose: 36.0 mg/kg/injection, schedule: Q01DX Z (ip), vehicle: carboxymethylcellulose (CMC) 90 % of control | dose: 72.0 mg/kg/injection, schedule: Q01DX Z (ip), vehicle: carboxymethylcellulose (CMC) 93 % of control | dose: 145.0 mg/kg/injection, schedule: Q01DX Z (ip), vehicle: carboxymethylcellulose (CMC) 96 % of control

Brc1cc(Cc2c(Br)csc2Br)c(Br)s1
inactive: [18] 101 % of control | [19] 101 % of control | [20] 101 % of control

O=C1NC(=O)C(CO)(c2ccccc2)N1 (stereo not given)
inactive: [16] 110 % of control | [13] 103 % of control | [14] 100 % of control | [9] 94 % of control | [10] 97 % of control | [11] 100 % of control

CC(=O)NS(=O)(=O)c1ccc(C)cc1
inactive: dose: 100.0 mg/kg/injection, schedule: Q04DX003 (ip), vehicle: acetone 115 % of control | dose: 200.0 mg/kg/injection, schedule: Q04DX003 (ip), vehicle: acetone 108 % of control | dose: 400.0 mg/kg/injection, schedule: Q04DX003 (ip), vehicle: acetone 97 % of control

N#C/C(=C/c1cccc2ccccc12)C(N)=O
inactive: [18] 98 % of control | [19] 91 % of control | [20] 98 % of control

O=C(O)C1C2CCC(C2)C1C(=O)O (stereo not given)
inactive: [15] 90 % of control | [9] 100 % of control | [24] 98 % of control | [10] 100 % of control | [25] 102 % of control | [11] 105 % of control

CCOC(=O)CCCC(=O)c1ccc(OC)c(OC)c1
inactive: [4] 100 % of control | [5] 102 % of control | [6] 100 % of control
